According to patent publication US12433865B2, “Compositions comprising PGI2-receptor agonists and processes for the preparation thereof” (Arena Pharmaceuticals, Inc., priority 2018, dated 2025):

Tests used:
[1] = Release (dissolution) profile of tablets, USP Apparatus 1 (baskets); type: physicochemical; details: for mean value (n = 6) of % of Compound 1 released: tablet, 25 mg Methocel K100 Premium LVCR
Source text: USP Apparatus 1 (BASKETS) is described, for example, in the United States Pharmacopeial Convention, Feb. 1, 2012, Chapter <711> (“Dissolution”), incorporated by reference herein in its entirety. See http://www.usp.org/sites/default/files/usp_pdf/EN/USPNF/revisions/m99470-gc_711.pdf. The USP Apparatus 1 (baskets) assembly consists of the following: a vessel, which may be covered, made of glass or other inert, transparent material; a motor; a metallic drive shaft; and a cylindrical basket. The materials should not sorb, react, or interfere with the specimen being tested. The vessel is partially immersed in a suitable water bath of any convenient size or heated by a suitable device such as a heating jacket. The water bath or heating device permits holding the temperature inside the vessel at 37±0.5° during the test and keeping the bath fluid in constant, smooth motion. No part of the assembly, including the environment in which the assembly is placed, contributes significant motion, agitation, or vibration beyond that due to the smoothly rotating stirring element. An apparatus that permits observation of the specimen and stirring element during the test is preferable. The vessel is cylindrical, with a hemispherical bottom and with one of the following dimensions and capacities: for a nominal capacity of 1 L, the height is 160 mm to 210 mm and its inside diameter is 98 mm to 106 mm; for a nominal capacity of 2 L, the height is 280 mm to 300 mm and its inside diameter is 98 mm to 106 mm; and for a nominal capacity of 4 L, the height is 280 mm to 300 mm and its inside diameter is 145 mm to 155 mm. Its sides are flanged at the top. A fitted cover may be used to retard evaporation. If a cover is used, it provides sufficient openings to allow ready insertion of the thermometer and withdrawal of specimens. The shaft is positioned so that its axis is not more than 2 mm at any point from the vertical axis of the vessel and rotates smoothly and without significant wobble that could affect the results. The vertical center line of the blade passes through the axis of the shaft so that the bottom of the blade is flush with the bottom of the shaft. A distance of 25 f 2 mm between the bottom of the blade and the inside bottom of the vessel is maintained during the test. The metallic or suitably inert, rigid blade and shaft comprise a single entity. A suitable two-part detachable design may be used provided the assembly remains firmly engaged during the test.
A speed-regulating device is used that allows the shaft rotation speed to be selected and maintained at the specified rate within +4%. Shaft and basket components of the stirring element are fabricated of stainless steel, type 316, or other inert material. A basket having a gold coating of about 0.0001 inch (2.5 μm) thick may be used. A dosage unit is placed in a dry basket at the beginning of each test. The distance between the inside bottom of the vessel and the bottom of the basket is maintained at 25±2 mm during the test.
The release profiles for modified-release tablets were measured using USP Apparatus 1 (baskets).
All release profiles disclosed in Tables 6a-6d were measured with USP Apparatus 1 (baskets) at 100 rpm in 500 mL of aqueous sodium phosphate at a concentration of 0.05 M (pH=6.8). The values in a given table relate to tablets obtained from the same batch. Values shown represent mean values over a number of dissolution tests (“n” in each table) in each case.

[2] = Plasma half-life; type: in vivo
[3] = Open-label multiple-dose escalation pharmacokinetic study in fasted or fed healthy subjects (Example 7 B); type: in vivo, human
Protocol: B. A second open-label, non-randomized pharmacokinetic study was conducted in healthy subjects. Fasted (cohort 1; n=19) or fed state (cohort 2, n=18) subjects received a modified-release tablet formulation of Compound 1 in a dose escalation sequence over 25 days ([…], depending upon individual subject tolerability, […]).
Two cohorts were enrolled to ensure data in 12 evaluable subjects per cohort. […]

[4] = modified-release tablet once daily

O=C(O)COC[C@H]1CC[C@H](COC(=O)N(c2ccccc2)c2ccc(Cl)cc2)CC1 [Compound 1, 2-(((1r,4r)-4-(((4-chlorophenyl)(phenyl)carbamoyloxy)methyl)cyclohexyl)methoxy)acetic acid]
release rate of tablets relative to modified-release capsule ([1]; 0.5 mg tablet with 40% HPMC K4M CR): faster | mean value (n = 6) of % of Compound 1 released ([1]; Table 6a: initial release profile, 0.05 mg Compound 1, 25 mg Methocel K4M Premium CR, 60 min): 6.9% | mean value (n = 6) of % of Compound 1 released ([1]; Table 6a: initial release profile, 0.05 mg Compound 1, 25 mg Methocel K4M Premium CR, 120 min): 25.3% | mean value (n = 6) of % of Compound 1 released ([1]; Table 6a: initial release profile, 0.05 mg Compound 1, 25 mg Methocel K4M Premium CR, 180 min): 35.8% | mean value (n = 6) of % of Compound 1 released ([1]; Table 6a: initial release profile, 0.05 mg Compound 1, 25 mg Methocel K4M Premium CR, 240 min): 45.1% | mean value (n = 6) of % of Compound 1 released ([1]; Table 6a: initial release profile, 0.05 mg Compound 1, 25 mg Methocel K4M Premium CR, 360 min): 62% | mean value (n = 6) of % of Compound 1 released ([1]; Table 6a: initial release profile, 0.05 mg Compound 1, 25 mg Methocel K4M Premium CR, 480 min): 74.8% | mean value (n = 6) of % of Compound 1 released ([1]; Table 6a: initial release profile, 0.05 mg Compound 1, 25 mg Methocel K4M Premium CR, 600 min): 86.6% | mean value (n = 6) of % of Compound 1 released ([1]; Table 6a: initial release profile, 0.05 mg Compound 1, 25 mg Methocel K4M Premium CR, 840 min): 100.4% | mean value (n = 6) of % of Compound 1 released ([1]; Table 6b: initial release profile, 0.5 mg Compound 1, 25 mg Methocel K4M Premium CR, 60 min): 17.9% | mean value (n = 6) of % of Compound 1 released ([1]; Table 6b: initial release profile, 0.5 mg Compound 1, 25 mg Methocel K4M Premium CR, 120 min): 27.3% | mean value (n = 6) of % of Compound 1 released ([1]; Table 6b: initial release profile, 0.5 mg Compound 1, 25 mg Methocel K4M Premium CR, 180 min): 36.9% | mean value (n = 6) of % of Compound 1 released ([1]; Table 6b: initial release profile, 0.5 mg Compound 1, 25 mg Methocel K4M Premium CR, 240 min): 45.5% | mean value (n = 6) of % of Compound 1 released ([1]; Table 6b: initial release profile, 0.5 mg Compound 1, 25 mg Methocel K4M Premium CR, 360 min): 61.1% | mean value (n = 6) of % of Compound 1 released ([1]; Table 6b: initial release profile, 0.5 mg Compound 1, 25 mg Methocel K4M Premium CR, 480 min): 74.2% | mean value (n = 6) of % of Compound 1 released ([1]; Table 6b: initial release profile, 0.5 mg Compound 1, 25 mg Methocel K4M Premium CR, 600 min): 84.8% | mean value (n = 6) of % of Compound 1 released ([1]; Table 6b: initial release profile, 0.5 mg Compound 1, 25 mg Methocel K4M Premium CR, 840 min): 98.1% | mean value (n = 6) of % of Compound 1 released ([1]; Table 6c: after storage at 40° C. and 75% RH for 6 months, 0.05 mg Compound 1, 25 mg Methocel K4M Premium CR, 60 min): 17% | mean value (n = 6) of % of Compound 1 released ([1]; Table 6c: after storage at 40° C. and 75% RH for 6 months, 0.05 mg Compound 1, 25 mg Methocel K4M Premium CR, 120 min): 27.1% | mean value (n = 6) of % of Compound 1 released ([1]; Table 6c: after storage at 40° C. and 75% RH for 6 months, 0.05 mg Compound 1, 25 mg Methocel K4M Premium CR, 180 min): 36.9% | mean value (n = 6) of % of Compound 1 released ([1]; Table 6c: after storage at 40° C. and 75% RH for 6 months, 0.05 mg Compound 1, 25 mg Methocel K4M Premium CR, 240 min): 45.4% | mean value (n = 6) of % of Compound 1 released ([1]; Table 6c: after storage at 40° C. and 75% RH for 6 months, 0.05 mg Compound 1, 25 mg Methocel K4M Premium CR, 360 min): 61.1% | mean value (n = 6) of % of Compound 1 released ([1]; Table 6c: after storage at 40° C. and 75% RH for 6 months, 0.05 mg Compound 1, 25 mg Methocel K4M Premium CR, 480 min): 75.8% | mean value (n = 6) of % of Compound 1 released ([1]; Table 6c: after storage at 40° C. and 75% RH for 6 months, 0.05 mg Compound 1, 25 mg Methocel K4M Premium CR, 600 min): 86.9% | mean value (n = 6) of % of Compound 1 released ([1]; Table 6c: after storage at 40° C. and 75% RH for 6 months, 0.05 mg Compound 1, 25 mg Methocel K4M Premium CR, 840 min): 100% | mean value (n = 6) of % of Compound 1 released ([1]; Table 6d: after storage at 40° C. and 75% RH for 6 months, 0.5 mg Compound 1, 25 mg Methocel K4M Premium CR, 60 min): 6.8% | mean value (n = 6) of % of Compound 1 released ([1]; Table 6d: after storage at 40° C. and 75% RH for 6 months, 0.5 mg Compound 1, 25 mg Methocel K4M Premium CR, 120 min): 24.3% | mean value (n = 6) of % of Compound 1 released ([1]; Table 6d: after storage at 40° C. and 75% RH for 6 months, 0.5 mg Compound 1, 25 mg Methocel K4M Premium CR, 180 min): 33% | mean value (n = 6) of % of Compound 1 released ([1]; Table 6d: after storage at 40° C. and 75% RH for 6 months, 0.5 mg Compound 1, 25 mg Methocel K4M Premium CR, 240 min): 41.3% | mean value (n = 6) of % of Compound 1 released ([1]; Table 6d: after storage at 40° C. and 75% RH for 6 months, 0.5 mg Compound 1, 25 mg Methocel K4M Premium CR, 360 min): 55.5% | mean value (n = 6) of % of Compound 1 released ([1]; Table 6d: after storage at 40° C. and 75% RH for 6 months, 0.5 mg Compound 1, 25 mg Methocel K4M Premium CR, 480 min): 67.9% | mean value (n = 6) of % of Compound 1 released ([1]; Table 6d: after storage at 40° C. and 75% RH for 6 months, 0.5 mg Compound 1, 25 mg Methocel K4M Premium CR, 600 min): 79.4% | mean value (n = 6) of % of Compound 1 released ([1]; Table 6d: after storage at 40° C. and 75% RH for 6 months, 0.5 mg Compound 1, 25 mg Methocel K4M Premium CR, 840 min): 94.7% | change of release profile following storage over time ([1]; modified-release tablets (FIGS. 12-14), storage at 40° C. and 75% RH for six months): did not change significantly | release rate of tablets relative to modified-release capsule ([1]; tablet with 30% HPMC K4M and 20% HPMC K100 LVCR): slightly faster | release rate of tablets relative to modified-release capsule ([1]; tablet with 40% HPMC K4M and 10% HPMC K100 LVCR, time points <6 hrs): faster | release rate of tablets relative to modified-release capsule ([1]; tablet with 40% HPMC K4M and 10% HPMC K100 LVCR, time points ≥6 hrs): slower | difference of percentage by weight of compound released, initial vs after storage ([1]; tablets 0.05 mg and 0.5 mg (FIGS. 12 and 13), storage at 40° C. and 75% RH for six months, any time point equal to or greater than 2 hours): ≤ 10% | half-life [2]: ~24 h | accumulation index (AUC(0-24)) ([3]; 5 days of dosing at 0.60 mg, both fed and fasted state): approximately 2.1 fold | exposure in fed vs fasted state ([3]; after single administration and at steady state): similar | differences in AUC(0-24) at steady state, female vs male subjects [3, 4]: did not indicate a significant increase | increase of Cmax at steady state in female vs male subjects [3, 4]: greater than 42% | mean plasma exposure measures in females compared to males [3, 4]: Somewhat higher | plasma exposure measures vs dose ([3]; modified-release tablet once daily, 0.06 to 0.3 mg): Dose-dependent | peak-trough fluctuation ([3]; modified-release tablet once daily, across dose levels): low | effect of food on plasma exposure ([3]; modified-release tablet once daily, fed vs fasted, across dose levels): little effect of food | Tmax in the fed state ([3]; modified-release tablet, fed vs fasted): delayed
